Source: US20100298141A1, “SUBSTITUTED PYRIDINE N-OXIDE HERBICIDES” (E. I. DU PONT DE NEMOURS AND COMPANY, priority 2007, published 2010)

Assays:
barnyardgrass = assay: Test A pre-/postemergence greenhouse test; type: in vivo, Echinochloa crus-galli; conditions: for Plant response rating, Barnyardgrass: 0 to 100 scale where 0 is no effect and 100 is complete control; for Barnyardgrass plant response rating: 0 to 100 scale
Procedure, shortened: (§1)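 Sowing in loam/sand; same-day pre (directed soil spray) and post (foliar, 1–2 leaf, 2–10 cm) treatment with surfactant-containing non-phytotoxic solvent formulation; ~10 days in greenhouse; eye-scored injury against untreated plants.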

giant foxtail = assay: Test A pre-/postemergence greenhouse test; type: in vivo, Setaria faberi; conditions: for Plant response rating, Foxtail, Giant: 0 to 100 scale where 0 is no effect and 100 is complete control; for Foxtail, Giant plant response rating: 0 to 100 scale
Procedure, shortened: as §1

morningglory = assay: Test A pre-/postemergence greenhouse test; type: in vivo, Ipomoea spp.; conditions: for Plant response rating, Morningglory: 0 to 100 scale where 0 is no effect and 100 is complete control; for Morningglory plant response rating: 0 to 100 scale
Procedure, shortened: as §1

redroot pigweed = assay: Test A pre-/postemergence greenhouse test; type: in vivo, Amaranthus retroflexus; conditions: for Plant response rating, Pigweed: 0 to 100 scale where 0 is no effect and 100 is complete control; for Pigweed plant response rating: 0 to 100 scale
Procedure, shortened: as §1

wheat [1] = assay: Test A pre-/postemergence greenhouse test; type: in vivo, Triticum aestivum; conditions: for Plant response rating, Wheat: 0 to 100 scale where 0 is no effect and 100 is complete control; for Wheat plant response rating: 0 to 100 scale
Procedure, shortened: as §1

corn = assay: Test A pre-/postemergence greenhouse test; type: in vivo, Zea mays; conditions: for Plant response rating, Corn: 0 to 100 scale where 0 is no effect and 100 is complete control; for Corn plant response rating: 0 to 100 scale
Procedure, shortened: as §1

wheat [2] = assay: Test C pre-/postemergence test; type: in vivo, Triticum aestivum
Procedure, shortened: (§2)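 Seeds were planted and treated preemergence with test chemical in a non-phytotoxic solvent mixture containing surfactant. Postemergence applications of the same formulation went onto plants 2 to 18 cm tall (1- to 4-leaf stage). A dash marks no test result.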

bermudagrass = assay: Test C pre-/postemergence test; type: in vivo, Cynodon dactylon
Procedure, shortened: as §2

Surinam grass = assay: Test C pre-/postemergence test; type: in vivo, Brachiaria decumbens
Procedure, shortened: as §2

crabgrass = assay: Test C pre-/postemergence test; type: in vivo, Digitaria sanguinalis
Procedure, shortened: as §2

Goosegrass = assay: Test C pre-/postemergence test; type: in vivo, Eleusin indica
Procedure, shortened: as §2

lambsquarters = assay: Test C pre-/postemergence test; type: in vivo, Chenopodium album
Procedure, shortened: as §2

eastern black nightshade = assay: Test C pre-/postemergence test; type: in vivo, Solanum ptycanthum
Procedure, shortened: as §2

pigweed = assay: Test C pre-/postemergence test; type: in vivo, Amaranthus retroflexus
Procedure, shortened: as §2

[3] = test system: common (oilseed) sunflower; assay: Test C pre-/postemergence test; type: in vivo, Helianthus annuus; conditions: for Sunflower plant response rating: preemergence, scale 0 (no effect) to 100 (complete control)
Procedure, shortened: as §2

rice = assay: Test C flooded paddy test; type: in vivo, Oryza sativa; conditions: Flood
Procedure, shortened: (§3)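 In-water treatment: compound dosed into 3 cm flood over soil, water level unchanged throughout. Controls run alongside; visual assessment at day 13–15.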

umbrella sedge = assay: Test C flooded paddy test; type: in vivo, Cyperus difformis; conditions: Flood
Procedure, shortened: as §3

[4] = Postemergence, 500 g ai/ha, 0 is no effect, 100 is complete control
[5] = Preemergence, 125 g ai/ha, 0 no effect, 100 complete control
[6] = 125 g ai/ha, preemergence, scale 0 (no effect) to 100 (complete control)
[7] = Preemergence, 31 g ai/ha, scale 0 to 100 (0 no effect, 100 complete control)
[8] = preemergence, 250 g ai/ha, scale 0 (no effect) to 100 (complete control)
[9] = 62 g ai/ha, Preemergence, scale 0 to 100
[10] = 31 g ai/ha, scale 0 to 100 (0 no effect, 100 complete control)
[11] = 125 g ai/ha, scale 0 to 100, 0 no effect, 100 complete control, 13 to 15 days
[12] = 250 g ai/ha, scale 0 to 100, 0 no effect, 100 complete control, 13 to 15 days

Cn1nc(C(F)(F)F)c(C[S+]([O-])c2ccc(F)c[n+]2[O-])c1Cl (stereo not shown) [Compound 54]
Plant response rating, Barnyardgrass (barnyardgrass; Postemergence, 125 g ai/ha): 70
Barnyardgrass plant response rating (barnyardgrass; [4]): 80
Barnyardgrass plant response rating (barnyardgrass; [5]): 80
Plant response rating, Barnyardgrass (barnyardgrass; Preemergence, 500 g ai/ha): 90
Plant response rating, Foxtail, Giant (giant foxtail; Postemergence, 125 g ai/ha): 60
Foxtail, Giant plant response rating (giant foxtail; [4]): 80
Foxtail, Giant plant response rating (giant foxtail; [5]): 80
Plant response rating, Foxtail, Giant (giant foxtail; Preemergence, 500 g ai/ha): 90
Plant response rating, Morningglory (morningglory; Postemergence, 125 g ai/ha): 60
Morningglory plant response rating (morningglory; [4]): 90
Morningglory plant response rating (morningglory; [5]): 10
Plant response rating, Morningglory (morningglory; Preemergence, 500 g ai/ha): 80
Plant response rating, Pigweed (redroot pigweed; Postemergence, 125 g ai/ha): 40
Pigweed plant response rating (redroot pigweed; [4]): 60
Pigweed plant response rating (redroot pigweed; [5]): 90
Plant response rating, Pigweed (redroot pigweed; Preemergence, 500 g ai/ha): 100
Plant response rating, Wheat (wheat [1]; Postemergence, 125 g ai/ha): 30
Wheat plant response rating (wheat [1]; [4]): 50
Wheat plant response rating (wheat [1]; [5]): 10
Plant response rating, Wheat (wheat [1]; Preemergence, 500 g ai/ha): 70
Plant response rating, Corn (corn; Postemergence, 125 g ai/ha): 0
Corn plant response rating (corn; [4]): 60
Corn plant response rating (corn; [5]): 20
Plant response rating, Corn (corn; Preemergence, 500 g ai/ha): 70
Wheat plant response rating (wheat [2]; [6]): 40
Plant response rating, Wheat (wheat [2]; [7]): 0
Bermudagrass plant response rating (bermudagrass; 62 g ai/ha, Preemergence, scale 0 to 100 (0 no effect, 100 complete control)): 100
Bermudagrass plant response rating (bermudagrass; [6]): 100
Plant response rating, Bermudagrass (bermudagrass; [7]): 98
Bermudagrass plant response rating (bermudagrass; [8]): 100
Surinam Grass plant response rating (Surinam grass; [9]): 90
Surinam Grass plant response rating (Surinam grass; [6]): 100
Plant response rating, Surinam Grass (Surinam grass; [7]): 55
Surinam Grass plant response rating (Surinam grass; [8]): 100
Crabgrass, Large plant response rating (crabgrass; [9]): 100
Crabgrass, Large plant response rating (crabgrass; [6]): 100
Plant response rating, Crabgrass, Large (crabgrass; [7]): 85
Crabgrass, Large plant response rating (crabgrass; [8]): 100
Goosegrass plant response rating (Goosegrass; [9]): 100
Goosegrass plant response rating (Goosegrass; [6]): 100
Plant response rating, Goosegrass (Goosegrass; [7]): 95
Goosegrass plant response rating (Goosegrass; [8]): 100
Lambsquarters plant response rating (lambsquarters; [9]): 90
Lambsquarters plant response rating (lambsquarters; [6]): 100
Plant response rating, Lambsquarters (lambsquarters; [7]): 0
Lambsquarters plant response rating (lambsquarters; [8]): 100
Nightshade plant response rating (eastern black nightshade; [9]): 50
Nightshade plant response rating (eastern black nightshade; [6]): 85
Plant response rating, Nightshade (eastern black nightshade; [7]): 0
Nightshade plant response rating (eastern black nightshade; [8]): 85
Pigweed plant response rating (pigweed; [9]): 100
Pigweed plant response rating (pigweed; [6]): 100
Plant response rating, Pigweed (pigweed; [7]): 0
Pigweed plant response rating (pigweed; [8]): 100
Sunflower plant response rating ([3]; 125 g ai/ha): 0
Plant response rating, Sunflower [3, 7]: 0
Sunflower plant response rating ([3]; 250 g ai/ha): 0
Plant response rating, Rice (rice; [10]): 0
Plant response rating, Rice (rice; 62 g ai/ha, scale 0 to 100, 0 no effect, 100 complete control, 13 to 15 days): 0
Plant response rating, Rice (rice; [11]): 15
Plant response rating, Rice (rice; [12]): 40
Plant response rating, Sedge, Umbrella (umbrella sedge; [10]): 0
Plant response rating, Sedge, Umbrella (umbrella sedge; [11]): 60
Plant response rating, Sedge, Umbrella (umbrella sedge; [12]): 100
